Assay results reported in ChEMBL document CHEMBL1144788, “Insect growth regulatory effects of linear diterpenoids and derivatives from Baccharis thymifolia” (2008).

Assays:
Tenebrio molitor [1] = assay: Growth inhibition of topically dosed Tenebrio molitor larvae assessed as duration of pupal instar stage at 120 ug measured every 24 hrs for 60 days; format: functional
Tenebrio molitor [2] = assay: Growth inhibition of topically dosed Tenebrio molitor larvae assessed as imaginal molt inhibition at 120 ug; format: functional

Compound | Activity (Tenebrio molitor [1]) [days] | Inhibition (Tenebrio molitor [2]) [%]
CC(C)=CCC/C(=C\CC/C(=C\CCC1=CCOC1=O)C(=O)O)C(=O)O | 5.09 | 24.1
COC(=O)/C(=C\CC/C(=C\CCc1ccoc1)C(=O)OC)CCC=C(C)C | 6 | –
COC(=O)/C(=C/CCc1ccoc1)CC/C=C1\CC[C@H](C(C)(C)O)OC1=O | 11.2 | –
CC(C)=CCC/C(=C\CC/C(=C\CCc1ccoc1)CO)CO | 5.3 | –
CC(C)=CCC[C@](O)(CO)[C@H]1CC/C(=C\CCc2ccoc2)CO1 | 16.2 | 14.4
COC(=O)/C(=C\CC/C(=C\CCc1ccoc1)C(=O)OC)CC[C@@H](O)C(C)(C)O | 11.2 | –
CC(C)=CCC/C(=C/CC/C(=C\CCc1ccoc1)C(=O)O)C(=O)O | 4.7 | –
COC(=O)/C(=C/CC/C(=C\CCc1ccoc1)C(=O)OC)CCC=C(C)C | 7.4 | 34.3
CC(C)=CCC[C@@](O)(CO)[C@@H]1CC[C@]2(CO1)OC2CCc1ccoc1 (single isomer, unassigned) | 10.6 | –
COC(=O)/C(=C/CCc1ccoc1)CC/C=C(\CC[C@@H](O)C(C)(C)O)C(=O)OC | 12 | –
CC(C)=CCC[C@](O)(CO)[C@H]1CC[C@@]2(CO1)OC2CCc1ccoc1 (single isomer, unassigned) | 9.9 | 30.8
CC(C)=CCC[C@@]1(CO)OC1CC[C@@]1(CO)OC1CCc1ccoc1 (single isomer, unassigned) | 12.7 | –
CC(C)=CCC[C@@](O)(CO)[C@@H]1CC/C(=C\CCc2ccoc2)CO1 | 12 | –
COC(=O)/C(=C/CCc1ccoc1)CC/C=C(\CC[C@H](O)C(C)(C)O)C(=O)OC | 12.1 | –
COC(=O)/C(=C\CC/C(=C\CCc1ccoc1)C(=O)OC)CC[C@H](O)C(C)(C)O | 10 | –
CC(C)=CCC/C(=C\CC/C(=C\CCc1ccoc1)C(=O)O)C(=O)O | 10.7 | 33.6
